Measurements as given in PMC4111124, “Functional characterization of Candida albicans Hos2 histone deacetylase” (F1000Research, 2014).

Tests used:
[1] = target: T1, Hos2 histone deacetylase (Candida albicans, UniProt A0A1D8PJ17); assay: fluorogenic deacetylase assay with Boc-Lys(Ac)-AMC, % inhibition at […]; type: biochemical; settings: read-out: % inhibition ± SE / 10 μM
T1 construct: full length, N-terminal hexa-histidine tag, expressed in Sf9 cells

[2] = target: T1, Hos2 histone deacetylase; assay: biochemical

T1 sequence (A0A1D8PJ17 entry or part of it): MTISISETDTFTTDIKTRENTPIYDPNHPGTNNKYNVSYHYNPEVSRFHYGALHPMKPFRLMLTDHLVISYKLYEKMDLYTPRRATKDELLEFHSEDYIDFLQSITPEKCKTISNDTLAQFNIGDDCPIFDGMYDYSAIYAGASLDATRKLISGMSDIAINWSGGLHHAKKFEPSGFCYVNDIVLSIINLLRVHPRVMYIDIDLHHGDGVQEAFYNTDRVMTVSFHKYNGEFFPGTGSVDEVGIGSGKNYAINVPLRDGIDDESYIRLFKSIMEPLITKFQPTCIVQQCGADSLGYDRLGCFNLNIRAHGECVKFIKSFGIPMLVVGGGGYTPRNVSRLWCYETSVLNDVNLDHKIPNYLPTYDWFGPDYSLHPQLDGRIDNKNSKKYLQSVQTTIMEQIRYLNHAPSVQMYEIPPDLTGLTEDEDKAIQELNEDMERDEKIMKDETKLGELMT

Row | SMILES | inhibition at 10 µM [1] [%] | IC50 [2] [nM]
1 | Nc1ccccc1NC(=O)c1ccc(CNC(=O)OCc2cccnc2)cc1 [MS-275] | 56.3 | 
2 | CC(/C=C/C(=O)NO)=C\[C@@H](C)C(=O)c1ccc(N(C)C)cc1 [TSA] |  | 2.8
